# Activity calls are given as the source filed them.
# Assays:
# [1] = biological target: Cytochrome P450 2D6 (Homo sapiens, UniProt P10635)
# [2] = biological target: T1, Polyadenylate-binding protein 1 (Homo sapiens, UniProt P11940); test: MLLE domain peptide-binding blockers, IC50 – biochemical, fluorescence polarization, FITC-PAM2 peptide, dose response (AID 602259); assay type: functional; details: read-out: IC50_Mean
# [3] = biological target: T1, Polyadenylate-binding protein 1; test: MLLE binding blockers, Cy5 peptide tracer – biochemical, fluorescence polarization, Cy5-PAM2 peptide, secondary, miRNA deadenylation inhibitor project, dose response (AID 602260); assay type: functional; details: read-out: IC50_Mean
# [4] = biological target: T2, Heat shock factor protein 1 (Mus musculus, UniProt P38532); test: decrease of HSF1-responsive luciferase luminescence – cell-based, NIH3T3, dose retest, confirmation (AID 2382); assay type: functional;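 note: NIH3T3 fibroblasts with HSF1-driven luciferase reporter stressed by proteasome inhibitor MG132; luminescence from HSF1-driven luciferase expression after 8 hours of MG132 stress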
# T2 sequence (P38532 whole entry): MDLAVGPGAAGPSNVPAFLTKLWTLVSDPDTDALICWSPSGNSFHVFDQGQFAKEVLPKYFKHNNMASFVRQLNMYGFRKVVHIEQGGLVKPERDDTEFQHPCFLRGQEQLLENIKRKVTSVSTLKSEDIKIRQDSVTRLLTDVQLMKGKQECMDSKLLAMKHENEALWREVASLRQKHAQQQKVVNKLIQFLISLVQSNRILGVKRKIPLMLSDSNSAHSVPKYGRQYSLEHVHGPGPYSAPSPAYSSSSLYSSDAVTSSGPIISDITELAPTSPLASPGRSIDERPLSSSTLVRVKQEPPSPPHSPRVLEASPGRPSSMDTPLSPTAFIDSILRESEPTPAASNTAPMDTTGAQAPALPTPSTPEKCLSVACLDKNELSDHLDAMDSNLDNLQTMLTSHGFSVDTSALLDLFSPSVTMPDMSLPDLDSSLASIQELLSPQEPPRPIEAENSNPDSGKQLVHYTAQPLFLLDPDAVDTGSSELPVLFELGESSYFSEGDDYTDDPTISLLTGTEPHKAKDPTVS
# [5] = biological target: FAD-linked sulfhydryl oxidase ALR (Homo sapiens, UniProt P55789); test: ALR-catalysed DTT oxidation blockers – biochemical, H2O2 detection, luminescence, cherry-pick, dose response (AID 493248)
# FAD-linked sulfhydryl oxidase ALR, sequence (P55789 whole entry): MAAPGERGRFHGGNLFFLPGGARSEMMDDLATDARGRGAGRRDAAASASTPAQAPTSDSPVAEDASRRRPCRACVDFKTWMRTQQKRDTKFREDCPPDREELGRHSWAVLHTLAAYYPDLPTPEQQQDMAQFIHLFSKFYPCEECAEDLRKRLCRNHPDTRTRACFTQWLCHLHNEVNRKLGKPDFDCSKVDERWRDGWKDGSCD
# [6] = biological target: Cytochrome P450 2C19 (Homo sapiens, UniProt P33261); test: Cytochrome panel assay with activity outcomes. Panel member name: p450-cyp2c19 Compounds with AC50 equal or less than 10 uM are considered active; assay type: functional; details: read-out: AC50
# Cytochrome P450 2C19, sequence (P33261 whole entry): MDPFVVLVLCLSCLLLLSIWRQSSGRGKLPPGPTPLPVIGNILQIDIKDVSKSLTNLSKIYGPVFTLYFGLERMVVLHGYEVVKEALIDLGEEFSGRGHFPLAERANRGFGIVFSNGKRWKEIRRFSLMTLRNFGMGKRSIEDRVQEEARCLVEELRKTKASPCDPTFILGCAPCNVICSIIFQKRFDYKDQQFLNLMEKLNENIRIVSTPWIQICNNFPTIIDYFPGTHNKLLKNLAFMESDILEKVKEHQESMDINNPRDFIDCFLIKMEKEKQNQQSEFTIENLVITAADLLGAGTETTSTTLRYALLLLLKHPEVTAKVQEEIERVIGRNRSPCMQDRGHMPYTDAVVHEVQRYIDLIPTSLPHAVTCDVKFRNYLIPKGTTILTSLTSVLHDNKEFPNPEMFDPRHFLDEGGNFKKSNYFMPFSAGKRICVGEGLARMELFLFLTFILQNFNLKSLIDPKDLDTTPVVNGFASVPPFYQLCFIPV
# [7] = biological target: T3, Cytochrome P450 1A2 (Homo sapiens, UniProt P05177);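 note: PubChem cytochrome P450 panel assay, CYP1A2 panel member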
# T3 sequence (P05177 whole entry): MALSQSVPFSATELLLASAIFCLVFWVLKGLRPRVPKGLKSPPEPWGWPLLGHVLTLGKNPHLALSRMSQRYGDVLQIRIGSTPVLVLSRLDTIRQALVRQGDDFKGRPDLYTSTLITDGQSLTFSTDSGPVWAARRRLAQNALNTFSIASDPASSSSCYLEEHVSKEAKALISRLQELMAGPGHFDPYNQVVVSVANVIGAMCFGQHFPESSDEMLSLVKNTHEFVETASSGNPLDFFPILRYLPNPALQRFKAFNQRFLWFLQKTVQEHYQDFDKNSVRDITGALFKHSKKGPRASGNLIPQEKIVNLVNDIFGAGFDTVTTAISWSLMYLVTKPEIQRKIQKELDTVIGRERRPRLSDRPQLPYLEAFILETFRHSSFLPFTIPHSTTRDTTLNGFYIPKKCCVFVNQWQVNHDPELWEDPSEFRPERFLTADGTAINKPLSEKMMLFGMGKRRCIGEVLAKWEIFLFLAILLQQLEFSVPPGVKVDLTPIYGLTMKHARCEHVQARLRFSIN
# [8] = Luminescence Cell-Based Dose Confirmation HTS to Identify Inhibitors of Platelet Dense Granule Release. [Related pubchem assays: 1663 (Primary HTS), 1678 (Summary of Project)]; assay type: functional
# [9] = biological target: Luciferin 4-monooxygenase (Photinus pyralis, UniProt P08659); test: inhibition of purified Photinus pyralis luciferase – biochemical, luminescence, dose response (AID 1891)
# Luciferin 4-monooxygenase, sequence (P08659 whole entry): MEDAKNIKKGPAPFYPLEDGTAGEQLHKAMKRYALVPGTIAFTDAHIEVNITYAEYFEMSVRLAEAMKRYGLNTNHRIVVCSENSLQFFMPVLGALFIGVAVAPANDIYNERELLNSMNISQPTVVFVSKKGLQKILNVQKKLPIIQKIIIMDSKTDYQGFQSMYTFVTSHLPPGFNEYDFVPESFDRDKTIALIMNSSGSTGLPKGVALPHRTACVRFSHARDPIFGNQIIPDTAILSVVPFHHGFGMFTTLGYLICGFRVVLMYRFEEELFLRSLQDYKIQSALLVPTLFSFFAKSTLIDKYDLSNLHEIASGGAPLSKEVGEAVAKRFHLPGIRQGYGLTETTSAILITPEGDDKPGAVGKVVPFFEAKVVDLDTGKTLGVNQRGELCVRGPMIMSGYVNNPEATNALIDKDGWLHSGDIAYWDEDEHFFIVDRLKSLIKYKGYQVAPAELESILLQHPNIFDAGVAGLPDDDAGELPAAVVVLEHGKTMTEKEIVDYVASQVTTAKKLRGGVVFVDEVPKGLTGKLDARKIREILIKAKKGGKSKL
# [10] = biological target: Paired box protein Pax-8 (Homo sapiens, UniProt Q06710); test: PAX8 transcriptional activity inhibition in RMG-I – RMG-I cells, luciferase, cherry-pick, dose response (AID 687027); assay type: functional, cell-based;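 note: luciferase reporter driven by Pax8 target thyroperoxidase promoter measured by SteadyGlo luminescence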
# Paired box protein Pax-8, sequence (Q06710 whole entry): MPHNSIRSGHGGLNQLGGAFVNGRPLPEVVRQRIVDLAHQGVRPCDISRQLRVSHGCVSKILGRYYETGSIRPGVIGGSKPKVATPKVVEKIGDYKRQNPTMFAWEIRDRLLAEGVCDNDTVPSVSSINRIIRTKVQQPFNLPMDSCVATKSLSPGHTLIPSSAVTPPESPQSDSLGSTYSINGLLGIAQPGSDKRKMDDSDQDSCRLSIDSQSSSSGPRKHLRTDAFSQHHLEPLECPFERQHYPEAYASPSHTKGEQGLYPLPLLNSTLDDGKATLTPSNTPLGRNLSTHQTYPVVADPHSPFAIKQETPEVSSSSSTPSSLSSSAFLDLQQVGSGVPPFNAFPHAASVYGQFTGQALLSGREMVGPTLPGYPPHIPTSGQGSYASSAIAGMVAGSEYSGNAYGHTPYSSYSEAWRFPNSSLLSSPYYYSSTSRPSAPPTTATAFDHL
# [11] = biological target: T4, Streptokinase A (Streptococcus pyogenes serotype M1, UniProt P10520); test: viability-normalized secreted streptokinase activity reduction – plasminogen activation absorbance, OD405, dose response (AID 1914); assay type: functional, Streptococcus pyogenes M1 GAS;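 note: secreted streptokinase activity via plasminogen activation per viability signal from cell pellet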
# T4 sequence (P10520 whole entry): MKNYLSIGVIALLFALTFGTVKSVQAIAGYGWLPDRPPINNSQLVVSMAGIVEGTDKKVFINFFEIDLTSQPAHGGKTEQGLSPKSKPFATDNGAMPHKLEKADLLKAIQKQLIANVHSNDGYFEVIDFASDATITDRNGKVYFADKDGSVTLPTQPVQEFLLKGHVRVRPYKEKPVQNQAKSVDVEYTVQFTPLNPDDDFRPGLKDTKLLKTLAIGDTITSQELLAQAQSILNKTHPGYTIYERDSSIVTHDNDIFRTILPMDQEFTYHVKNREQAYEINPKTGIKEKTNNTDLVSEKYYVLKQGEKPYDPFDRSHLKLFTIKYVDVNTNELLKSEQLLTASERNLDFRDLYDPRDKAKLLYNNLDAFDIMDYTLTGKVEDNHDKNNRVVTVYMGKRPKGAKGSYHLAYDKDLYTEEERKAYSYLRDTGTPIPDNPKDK
# [12] = test system: Streptococcus; test: GAS UMAA2166 growth inhibition – luminescence, BacTiterGlo, counter-screen for streptokinase expression inhibitor project, dose response (AID 1915); assay type: functional, organism-based;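 note: potency for reduction of bacterial viability or growth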
# [13] = test system: Streptococcus sp. 'group A'; test: Streptococcus pyogenes SK(-)GAS viability under kanamycin – luminescence, BacTiterGlo, confirmation, counter-screen for streptokinase expression inhibitor project, dose response (AID 1900); assay type: functional, organism-based
# [14] = biological target: Cytochrome P450 2C9 (Homo sapiens, UniProt P11712)
# Cytochrome P450 2C9, sequence (P11712 whole entry): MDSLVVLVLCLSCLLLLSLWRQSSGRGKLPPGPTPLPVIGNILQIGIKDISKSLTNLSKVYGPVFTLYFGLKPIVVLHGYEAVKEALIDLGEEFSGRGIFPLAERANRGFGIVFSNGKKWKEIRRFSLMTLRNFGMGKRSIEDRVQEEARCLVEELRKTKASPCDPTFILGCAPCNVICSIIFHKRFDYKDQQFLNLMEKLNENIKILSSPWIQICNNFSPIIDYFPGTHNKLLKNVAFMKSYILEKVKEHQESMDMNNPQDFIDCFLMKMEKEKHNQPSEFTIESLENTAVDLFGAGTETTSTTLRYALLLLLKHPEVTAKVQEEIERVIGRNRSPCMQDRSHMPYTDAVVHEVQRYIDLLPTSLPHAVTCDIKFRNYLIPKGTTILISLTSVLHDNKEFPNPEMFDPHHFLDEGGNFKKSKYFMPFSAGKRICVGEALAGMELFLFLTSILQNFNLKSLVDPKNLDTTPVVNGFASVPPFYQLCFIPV
# [15] = alpha-synuclein stem-loop luciferase translation blockers – H4 neuroglioma cells, luminescence, confirmation (AID 1988); assay type: functional, cell-based
# [16] = luciferase reporter signal suppression in cells – H4 neuroglioma cells, luminescence, dose response (AID 1990); assay type: functional, cell-based
# [17] = Luminescence Cell-Based Dose Retest to Confirm Inhibitors of Cancer Stem Cells. [Related pubchem assays (depositor defined):AID2717, AID2721]; assay type: functional; details: Homo sapiens
# [18] = Luminescence Cell-Based Dose Response HTS to Identify Inhibitors of 5'UTR Stem-Loop Driven Prion Protein mRNA Translation in H4 Neuroglioblastoma Cells. [Related pubchem assays: 1827 (Project Summary), 1813 (Primary HTS)]; assay type: functional
# T1 sequence (P11940 whole entry, the tested form may be a part): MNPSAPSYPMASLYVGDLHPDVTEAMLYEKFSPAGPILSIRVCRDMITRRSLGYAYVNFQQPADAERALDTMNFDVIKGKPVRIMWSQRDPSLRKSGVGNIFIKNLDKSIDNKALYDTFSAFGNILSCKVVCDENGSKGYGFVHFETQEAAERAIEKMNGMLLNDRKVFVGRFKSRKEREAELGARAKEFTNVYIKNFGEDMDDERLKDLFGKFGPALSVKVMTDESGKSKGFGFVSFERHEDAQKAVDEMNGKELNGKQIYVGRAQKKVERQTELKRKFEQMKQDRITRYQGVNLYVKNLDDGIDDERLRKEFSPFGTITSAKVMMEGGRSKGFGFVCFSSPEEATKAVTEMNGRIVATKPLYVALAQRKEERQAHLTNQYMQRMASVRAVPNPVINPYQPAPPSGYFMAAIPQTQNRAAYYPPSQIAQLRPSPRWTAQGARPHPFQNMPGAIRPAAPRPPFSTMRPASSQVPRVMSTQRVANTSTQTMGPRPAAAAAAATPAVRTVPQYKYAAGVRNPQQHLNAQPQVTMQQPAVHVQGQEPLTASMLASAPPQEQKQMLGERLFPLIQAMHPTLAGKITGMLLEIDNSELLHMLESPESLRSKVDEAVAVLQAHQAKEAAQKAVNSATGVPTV
# Cytochrome P450 2D6, sequence (P10635 whole entry, the tested form may be a part): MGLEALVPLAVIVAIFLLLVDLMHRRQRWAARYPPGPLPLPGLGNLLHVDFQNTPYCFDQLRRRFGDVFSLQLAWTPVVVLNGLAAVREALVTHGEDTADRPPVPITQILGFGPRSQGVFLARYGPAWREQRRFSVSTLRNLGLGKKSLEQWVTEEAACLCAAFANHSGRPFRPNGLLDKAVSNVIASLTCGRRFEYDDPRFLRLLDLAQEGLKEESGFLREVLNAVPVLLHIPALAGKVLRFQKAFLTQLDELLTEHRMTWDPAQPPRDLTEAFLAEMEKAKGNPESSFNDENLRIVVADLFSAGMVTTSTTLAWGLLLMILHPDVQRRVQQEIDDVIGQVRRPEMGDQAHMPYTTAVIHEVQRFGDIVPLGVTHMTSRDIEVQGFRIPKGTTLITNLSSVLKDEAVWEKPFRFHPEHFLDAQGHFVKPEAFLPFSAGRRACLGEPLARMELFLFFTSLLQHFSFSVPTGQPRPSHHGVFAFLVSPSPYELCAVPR
compound,measurement,setting,value
c1csc(CN2CC[C@@]3(CCCNC3)C2)n1,AC50,[1],12.6 µM (inconclusive)
CC1CC(C)(C)NC(=S)S1 (stereo not drawn),IC50,[2],> 66 µM (inactive)
same,IC50,[3],> 66 µM (inactive)
OCCNc1nc2nonc2nc1NCCO,EC50,[4],> 195 µM (not active)
c1csc(-c2nnsc2-c2nc3ccccc3[nH]2)c1,EC50,[4],> 195 µM (not active)
CCC(=O)N1CCc2cc(S(=O)(=O)NCCC(=O)N3CCN(c4cccc(C)c4)C(C)C3)ccc21 (stereo not drawn),AC50,[5],72.4 µM (active)
Cc1cc(NC(=O)c2ccccc2Cl)no1,AC50,[6],14.1 µM (inconclusive)
same,AC50,[7],31.6 µM (inconclusive)
same,EC50,[8],> 112 µM (not active)
same,EC50,[9],> 112 µM (not active)
Cc1c(C(=O)N2CCCC2)sc(NC(=O)c2cccc(Cl)c2)c1C#N,EC50,[8],> 112 µM (not active)
same,EC50,[9],> 112 µM (not active)
CC(C)c1cc(C(N)=O)c(NC(=O)C2CCC2)s1,AC50,[5],9.12 µM (active)
CCn1c(S)nnc1CN1C(=O)CSc2ccccc21,AC50,[5],1.85 µM (active)
CCN(CC)c1ccc(C2CC(=O)Nc3cc(OC)c(OC)cc32)cc1 (stereo not drawn),AC50,[5],2.47 µM (active)
COc1ccc(Cl)cc1NC(=O)Nc1cc(C)on1,EC50,[8],> 112 µM (not active)
same,EC50,[9],> 112 µM (not active)
O=C(CSc1ccc2nnc(-c3ccccc3)n2n1)N1CCCCC1,IC50,[2],> 66 µM (inactive)
same,IC50,[3],> 66 µM (inactive)
Cc1cccc(CC(=O)N2CCN=C2SCc2ccc([N+](=O)[O-])cc2)c1,IC50,[2],> 66 µM (inactive)
same,IC50,[3],> 66 µM (inactive)
COc1cccc(N2CCN(Cc3cccnc3)CC2)c1,AC50,[5],10.3 µM (active)
COc1ccc2[nH]cc(CCNc3ccnc(-c4ccc(C(=O)N(C)C)cc4)n3)c2c1,AC50,[1],25.1 µM (inconclusive)
O=C(c1ccccc1)N(CCO)Cc1cc2cc3c(cc2nc1O)OCCO3,IC50,[2],> 66 µM (inactive)
same,IC50,[3],> 66 µM (inactive)
Cc1cc(C)cc(NC(S)=Nc2ccc(Cl)c(Cl)c2)c1,IC50,[2],> 66 µM (inactive)
same,IC50,[3],> 66 µM (inactive)
Cc1cc(C#N)c2ccccc2n1,EC50,[8],> 112 µM (not active)
same,EC50,[9],> 112 µM (not active)
COCCn1c(SCC(=O)NCC2CCCO2)nc2c(c1=O)SCC2 (stereo not drawn),IC50,[2],> 66 µM (inactive)
same,IC50,[3],> 66 µM (inactive)
CC(C)c1nnc(SCC(=O)NCCC2=CCCCC2)n1N,IC50,[2],> 66 µM (inactive)
same,IC50,[3],> 66 µM (inactive)
COc1ccc(N2CCN(C(=O)NCc3ccc(OC)c(OC)c3)CC2)cc1,AC50,[5],5.76 µM (active)
O=C(NCC1CC1)Nc1cccs1,AC50,[5],4.97 µM (active)
COc1cccc(S(=O)(=O)N(C)C[C@H]2OCc3ccccc3-c3c(n(C)c4ccccc34)C(=O)N([C@@H](C)CO)C[C@H]2C)c1,AC50,[10],6.16 µM (active)
Cc1cccc(NC2(C(F)(F)F)N=C3SCCN3C2=O)n1 (stereo not drawn),IC50,[2],> 66 µM (inactive)
same,IC50,[3],> 66 µM (inactive)
O=C(c1ccccc1)c1cc2ccc(O)cc2oc1=O,EC50,[11],> 150 µM (not active)
same,EC50,[8],< 0.701 µM (active)
same,EC50,[12],18.5 µM (active)
same,EC50,[13],8.12 µM (active)
same,EC50,[9],1.14 µM (active)
O=C(N/N=C1/CC/C(=N/NC(=O)c2cccnc2)CC1)c1cccnc1,AC50,[5],0.879 µM (active)
C[C@H](CO)N1C[C@H](C)[C@@H](CN(C)CC2CCCCC2)Oc2ccc(NC(=O)Nc3ccc4c(c3)OCO4)cc2CC1=O,AC50,[10],11 µM (active)
Cc1cc(NC(=O)C2CCCN(S(=O)(=O)c3c[nH]cn3)C2)ccc1Br (stereo not drawn),AC50,[5],69.2 µM (active)
CCc1c(C)c2cc(Cl)c(O)c(CN3CCCCC3)c2oc1=O,AC50,[5],9.26 µM (active)
Cc1cc(NC(=O)CSc2nccn2-c2cccc(Cl)c2)no1,IC50,[2],> 66 µM (inactive)
same,IC50,[3],> 66 µM (inactive)
Oc1ccc[n+](CCCCC[n+]2cccc(O)c2)c1,EC50,[8],19 µM (active)
same,EC50,[9],> 112 µM (not active)
CC1(Cc2ccc(OC(F)(F)F)cc2)C(=O)Nc2ccc(S(=O)(=O)NC3CCCCC3)cc21 (stereo not drawn),AC50,[10],9.35 µM (active)
COC(=O)c1[nH]c2ccccc2c1NC(=O)CN1CCN(C(=O)c2ccco2)CC1,EC50,[8],> 112 µM (not active)
same,EC50,[9],> 112 µM (not active)
CC(=O)N/N=C/c1cc(C)n(-c2ccc(Br)cc2)c1C,AC50,[5],0.414 µM (active)
Cc1ccc(S(=O)(=O)N2CCCC(C(=O)NCCc3ccc4c(c3)OCO4)C2)cc1 (stereo not drawn),EC50,[4],> 195 µM (not active)
O=C(Cc1ccc2c(c1)CCCC2)Nc1ccccc1Br,IC50,[2],> 66 µM (inactive)
same,IC50,[3],> 66 µM (inactive)
same,AC50,[14],15.8 µM (inconclusive)
O=C1OC(NC(=O)c2ccccc2)C(n2cc(CO)nn2)=C1Cl (stereo not drawn),EC50,[4],35.7 µM (active)
CCOC(=O)C1(Cc2ccc(OC)cc2)CCN(C(=O)c2csc(C)n2)CC1,EC50,[4],> 195 µM (not active)
CC(=O)Nc1c(I)c(NC(C)=O)c(I)c(C(=O)O)c1I [DIATRIZOATE MEGLUMINE],EC50,[4],> 195 µM (not active)
O=C(NCc1cccnc1)C(=O)NCC(c1ccco1)N1CCN(c2ccc(F)cc2)CC1 (stereo not drawn),AC50,[5],6.41 µM (active)
CC(=O)C1C(c2ccc(Cl)cc2)NC(=O)NC1(O)C(F)(F)F (stereo not drawn),EC50,[8],> 112 µM (not active)
same,EC50,[9],> 112 µM (not active)
COc1cc(NC(=O)CSc2nnnn2-c2ccccc2)cc(OC)c1OC,EC50,[4],> 195 µM (not active)
Cc1nnc2nc(SCC(=O)NC3CCCCC3)n(-c3ccc(Br)cc3)c(N)c1-2,AC50,[10],8.51 µM (active)
same,EC50,[15],9.53 µM (active)
same,EC50,[16],14.6 µM (active)
same,AC50,[17],9.82 µM (active)
same,EC50,[18],13.9 µM (active)
COc1ccc(C(=S)N2CCN(c3ccccc3C)CC2)cc1,IC50,[2],> 66 µM (inactive)
same,IC50,[3],> 66 µM (inactive)
Cc1ccccc1OCC(=O)Nc1ccc2c(c1)C(=O)N(CCC(=O)O)C2=O,EC50,[4],32.6 µM (active)
COc1ccc(C(=O)NC(=S)NCCO)cc1Br,EC50,[4],> 195 µM (not active)
COc1ccc(OCC(=O)N2CCN(c3cccc(C(F)(F)F)c3)CC2)cc1,EC50,[4],> 195 µM (not active)
Cc1ccc(-n2c(C)cc3c2CCCC3=O)cc1,IC50,[2],41.2 µM (inactive)
same,IC50,[3],> 66 µM (inactive)
